Assay results: US20250230155A1 (Vanderbilt University, priority 2021, published 2025)
Where two headings read alike, the source gives them in different places.

Target: T1, human mAChR M4 (Homo sapiens, UniProt P08173)
T1 construct: expressed in transfected cells
T1 sequence (P08173 1-479): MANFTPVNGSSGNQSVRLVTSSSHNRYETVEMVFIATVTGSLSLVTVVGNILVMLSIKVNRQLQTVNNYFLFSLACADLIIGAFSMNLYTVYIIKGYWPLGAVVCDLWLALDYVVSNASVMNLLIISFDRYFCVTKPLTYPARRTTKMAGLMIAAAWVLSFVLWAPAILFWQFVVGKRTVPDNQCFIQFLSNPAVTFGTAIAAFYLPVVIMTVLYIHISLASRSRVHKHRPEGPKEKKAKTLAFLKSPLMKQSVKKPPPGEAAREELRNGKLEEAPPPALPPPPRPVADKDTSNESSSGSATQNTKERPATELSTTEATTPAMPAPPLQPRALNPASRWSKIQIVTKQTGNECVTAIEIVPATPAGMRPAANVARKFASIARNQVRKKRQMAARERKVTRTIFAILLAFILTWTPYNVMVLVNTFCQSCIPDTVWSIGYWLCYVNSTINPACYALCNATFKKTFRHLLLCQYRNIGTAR
Assay: mAChR M4 cell-based functional assay (calcium mobilization, CHO-K1 hM4-Gqi5 cells)
Settings: for Emax at 30 µM: CHO-K1, % ACh maximum at 30 μM, human M4; for EC50: increase in the EC20 acetylcholine response, CHO-K1 hM4-Gqi5 cells
Method in brief: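 CHO-K1 cells stably expressing human M4 with chimeric Gqi5, loaded with Fluo-4 AM; compounds given as 11-point 1:3 curves and calcium flux read on FDSS at 1 Hz. Acetylcholine EC20 added at 144 s, EC80 at 230 s; agonist, PAM (EC20 potentiation) and antagonist (EC80 inhibition) EC50/Emax from four-parameter fits.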

[1] = positive allosteric modulator activity, read-out: Human M4 EC50

Row | SMILES | Emax at 30 µM [%] | EC50 [1] [nM] | Emax (CHO-K1) [%] | EC50 (Human M4 EC50, positive allosteric modulator activity) [nM]
1 | O=C(NCc1cncs1)c1ccc(N2CCc3ncc(C(F)(F)F)cc3C2)nn1 [Example 510, N-(thiazol-5-ylmethyl)-6-(3-(trifluoromethyl)-7,8-dihydro-1,6-naphthyridin-6(5H)-yl)pyridazine-3-carboxamide] | 81 | 855 | – | –
2 | Cc1c(Cl)nc(C(F)(F)F)nc1N1CCc2ncc(C(F)(F)F)cc2C1 [compound 237, 6-(6-chloro-5-methyl-2-(trifluoromethyl)pyrimidin-4-yl)-3-(trifluoromethyl)-5,6,7,8-tetrahydro-1,6-naphthyridine] | 73 | 2960 | – | –
3 | Cc1c(C(=O)NCc2ccncc2)nnc(N2CCc3ncc(C(F)(F)F)cc3C2)c1C [Example 467, 4,5-dimethyl-N-(pyridin-4-ylmethyl)-6-(3-(trifluoromethyl)-7,8-dihydro-1,6-naphthyridin-6(5H)-yl)pyridazine-3-carboxamide] | 98 | 129 | – | –
4 | COC(=O)c1ccc(CNC(=O)c2cnc(N3CCc4ncccc4C3)c(C)c2)cn1 [compound 142, methyl 5-[[[6-(7,8-dihydro-5H-1,6-naphthyridin-6-yl)-5-methyl-pyridine-3-carbonyl]amino]methyl]pyridine-2-carboxylate] | 50 | ≥ 10000 | – | –
5 | [2H]C([2H])(NC(=O)c1cc(C)c(N2CCc3ncc(N4CCCn5nccc54)cc3C2)nn1)c1ccncc1 [Example 509, 6-(3-(6,7-dihydropyrazolo[1,5-a]pyrimidin-4(5H)-yl)-7,8-dihydro-1,6-naphthyridin-6(5H)-yl)-5-methyl-N-(pyridin-4-ylmethyl-d2)pyridazine-3-carboxamide] | 104 | 12 | – | –
6 | Cc1nc(Cl)c(C)c(N2CCc3ncc(C(F)(F)F)cc3C2)n1 [compound 200, 6-(6-chloro-2,5-dimethyl-pyrimidin-4-yl)-3-(trifluoromethyl)-7,8-dihydro-5H-1,6-naphthyridine] | 96 | 128 | – | –
7 | Cc1nc(Cl)nc(N2CCc3ncc(C4CC4)cc3C2)c1C [compound 254, 6-(2-chloro-5,6-dimethylpyrimidin-4-yl)-3-cyclopropyl-5,6,7,8-tetrahydro-1,6-naphthyridine] | – | – | 95 | 70
8 | Cc1cc(C(=O)NC(C)C)cnc1N1CCc2ncccc2C1 [compound 58, 6-(7,8-dihydro-5H-1,6-naphthyridin-6-yl)-N-isopropyl-5-methyl-pyridine-3-carboxamide] | 51 | ≥ 10000 | – | –
9 | [2H]C([2H])([2H])c1cnc2c(c1)CN(c1nnc(C(=O)N3CCCC3)cc1C)CC2 [Example 578, (5-methyl-6-(3-(methyl-d3)-7,8-dihydro-1,6-naphthyridin-6(5H)-yl)pyridazin-3-yl)(pyrrolidin-1-yl)methanone] | 105 | 2440 | – | –
10 | Cc1cc(C(=O)NCc2ccncc2)nnc1N1CCc2ncc(N3CCCn4nccc43)cc2C1 [Example 490, 6-(3-(6,7-dihydropyrazolo[1,5-a]pyrimidin-4(5H)-yl)-7,8-dihydro-1,6-naphthyridin-6(5H)-yl)-5-methyl-N-(pyridin-4-ylmethyl)pyridazine-3-carboxamide] | 100 | 16 | – | –

Second part, led by results:

Row | Emax at 30 µM [%] | EC50 [1] [nM] | SMILES | Emax (CHO-K1) [%] | EC50 (Human M4 EC50, positive allosteric modulator activity) [nM]
11 | 86 | 1080 | Cc1cc(C#N)nnc1N1CCc2ncc(-c3ccnn3C)cc2C1 [Example 394, 5-methyl-6-(3-(1-methyl-1H-pyrazol-5-yl)-7,8-dihydro-1,6-naphthyridin-6(5H)-yl)pyridazine-3-carbonitrile] | – | –
12 | 74 | 897 | Cc1cc(C#N)cnc1N1CCc2ncc(OCCOC3CCCC3)cc2C1 [Example 433, 6-(3-(2-(cyclopentyloxy)ethoxy)-7,8-dihydro-1,6-naphthyridin-6(5H)-yl)-5-methylnicotinonitrile] | – | –
13 | 86 | 8 | [2H]C1([2H])Cc2ncc(Nc3ccccc3F)cc2C([2H])([2H])N1c1nnc(C#N)cc1C [Example 611, 6-(3-((2-fluorophenyl)amino)-7,8-dihydro-1,6-naphthyridin-6(5H)-yl-5,5,7,7-d4)-5-methylpyridazine-3-carbonitrile] | – | –
14 | 66 | 197 | Cc1c(C#N)nnc(N2CCc3ncc(Nc4c(F)cccc4Cl)cc3C2)c1C [Example 33] | – | –
15 | 86 | 764 | Cc1cc(C#N)nnc1N1CCc2ncc(-c3cn(C)nc3C)cc2C1 [Example 323, 6-(3-(1,3-dimethyl-1H-pyrazol-4-yl)-7,8-dihydro-1,6-naphthyridin-6(5H)-yl)-5-methylpyridazine-3-carbonitrile] | – | –
16 | 87 | 368 | Cc1c(C#N)nnc(N2CCc3ncc(-c4ccncc4)cc3C2)c1C [compound 74, 4,5-dimethyl-6-[3-(4-pyridyl)-7,8-dihydro-5H-1,6-naphthyridin-6-yl]pyridazine-3-carbonitrile] | – | –
17 | 65 | 739 | Cc1cc(C#N)cnc1N1CCc2ncc(N3CCCn4nc(C(C)(C)C)cc43)cc2C1 [Example 414, 6-(3-(2-(tert-butyl)-6,7-dihydropyrazolo[1,5-a]pyrimidin-4(5H)-yl)-7,8-dihydro-1,6-naphthyridin-6(5H)-yl)-5-methylnicotinonitrile] | – | –
18 | 96 | 72 | Cc1cnccc1Nc1cnc2c(c1)CN(c1ncc(C#N)cc1C)CC2 [Example 620, 5-methyl-6-(3-((3-methylpyridin-4-yl)amino)-7,8-dihydro-1,6-naphthyridin-6(5H)-yl)nicotinonitrile] | – | –
19 | 82 | 81 | Cc1cc(C#N)cnc1N1CCc2ncc(N3CCOC(C)(C)C3)cc2C1 [Example 370, 6-(3-(2,2-dimethylmorpholino)-7,8-dihydro-1,6-naphthyridin-6(5H)-yl)-5-methylnicotinonitrile] | – | –
20 | 92 | 942 | Cc1cc(C#N)cnc1N1CCc2ncc(N3CCOC(c4cccnc4)C3)cc2C1 (centres unmarked) [Example 389, 5-methyl-6-(3-(2-(pyridin-3-yl)morpholino)-7,8-dihydro-1,6-naphthyridin-6(5H)-yl)nicotinonitrile] | – | –
21 | 83 | 276 | Cc1cc(C#N)nnc1N1CCc2ncc(Oc3cccc(F)c3F)cc2C1 [Example 356, 6-(3-(2,3-difluorophenoxy)-7,8-dihydro-1,6-naphthyridin-6(5H)-yl)-5-methylpyridazine-3-carbonitrile] | – | –
22 | 100 | 196 | Cc1cc(C(=O)NCc2ccncc2)cnc1N1CCc2ncc(C(F)(F)F)cc2C1 [Example 444, 5-methyl-N-(pyridin-4-ylmethyl)-6-(3-(trifluoromethyl)-7,8-dihydro-1,6-naphthyridin-6(5H)-yl)nicotinamide] | – | –
23 | 78 | 760 | Cc1cc(C(=O)NCc2cncs2)cnc1N1CCc2ncccc2C1 [compound 62, 6-(7,8-dihydro-5H-1,6-naphthyridin-6-yl)-5-methyl-N-(thiazol-5-ylmethyl)pyridine-3-carboxamide] | – | –
24 | 62 | 4310 | Cc1cc(C#N)cnc1N1CCc2ncc(N3CCO[C@@H](c4ccccc4)C3)cc2C1 [Example 378, (S)-5-methyl-6-(3-(2-phenylmorpholino)-7,8-dihydro-1,6-naphthyridin-6(5H)-yl)nicotinonitrile] | – | –
25 | 76 | 785 | Cc1cc(C#N)cnc1N1CCc2ncc(NCC3CCCO3)cc2C1 (centres unmarked) [Example 9] | – | –
